Source: PMC8284926 (Journal of the American Chemical Society, 2021)

Assays:
[1] = system: MEFs lacking Pol β (Pol β −/−); assay: Cytotoxicity in Pol β null mouse embryonic fibroblasts; format: cell-based; conditions: MMS alone
DNA polymerase β (Pol β) = DNA polymerase β (Pol β) (Homo sapiens, UniProt P06746); conditions: cited from earlier work

Row | SMILES | cytotoxicity relative to wild type MEFs [1] | selectivity for Pol β over Pol λ (DNA polymerase β (Pol β))
1 | COS(C)(=O)=O [MMS, methylmethanesulfonate] | considerably more toxic | 
2 | C=CCc1ccc(O)c(-c2ccc(O)c(CC=C)c2)c1 [honokiol] |  | not selective for Pol β over Pol λ
